Article PMC6081437, “The potency of the broad spectrum bacteriocin, bactofencin A, against staphylococci is highly dependent on primary structure, N-terminal charge and disulphide formation” (Scientific Reports, 2018)
Bridge positions count the residues as written; N and C are the ends. Square brackets hold non-standard residues; d marks the D form. Ends that are not written are not given here. Peptide text beside a SMILES is read from it.

System: S. aureus DPC5246
Format: cell-based, Staphylococcus aureus
Settings: for Activity (Minimum Inhibitory Concentration, MIC): DPC5246, pH 6.8; for fold reduction in activity compared with bactofencin A (wild type): S. aureus DPC5246, agar well diffusion MIC
Method: Peptides were resuspended at 1000 µM in 50 mM sodium phosphate buffer pH 6.8 and checked for purity by MALDI-TOF-MS. Peptides were serially diluted 1 in 4 to give a dilution series of 250, 62.50, 15.63, 3.91, 0.98 and 0.24 µM and assayed by the agar well diffusion assay described by Ryan et al.[19]. Briefly, 50 µl aliquots of each peptide concentration were plated on a S. aureus DPC5246 indicator plate and the plate incubated at 37 °C. Peptide activity (Minimum Inhibitory Concentration (MIC)) was taken as the lowest concentration of peptide to give a zone of inhibition. All assays were performed in triplicate. The dilution series values were rounded to the nearest whole number to give 1000, 250, 63, 16, 4, 1 and 0.25 µM and data is colour coded for ease of interpretation.

Compound | Activity (Minimum Inhibitory Concentration, MIC) | fold reduction in activity compared with bactofencin A (wild type)
CSCC[C@@H]1NC(=O)CNC(=O)[C@H]([C@@H](C)O)NC(=O)[C@@H]2CCCN2C(=O)[C@H](CCSC)NC(=O)CNC(=O)[C@H](CC(N)=O)NC(=O)[C@H](CC(N)=O)NC(=O)[C@H](Cc2ccc(O)cc2)NC(=O)[C@H](C(C)C)NC(=O)[C@H](CCCNC(=N)N)NC(=O)[C@H](NC(=O)[C@H](CCCNC(=N)N)NC(=O)[C@H](Cc2c[nH]cn2)NC(=O)[C@H](CCCCN)NC(=O)[C@H](CCCCN)NC(=O)[C@H](CCCNC(=N)N)NC(=O)[C@@H](N)CCCCN)CSSC[C@@H](C(=O)O)NC(=O)[C@H](Cc2c[nH]c3ccccc23)NC(=O)[C@H](CCCNC(=N)N)NC(=O)[C@H](Cc2ccc(O)cc2)NC1=O [C7Cd] (H-KRKKHR[dC]RVYNNGMPTGMYRWC-OH; disulfide 7-22; N-terminus assumed) | 16 µM | 
KRKKHRARVYNNGMPTGMYRWA [C7A-C22A] | 16 µM | 16 fold
CSCC[C@@H]1NC(=O)CNC(=O)[C@H]([C@@H](C)O)NC(=O)[C@@H]2CCCN2C(=O)[C@H](CCSC)NC(=O)CNC(=O)[C@H](CC(N)=O)NC(=O)[C@H](CC(N)=O)NC(=O)[C@H](Cc2ccc(O)cc2)NC(=O)[C@H](C(C)C)NC(=O)[C@H](CCCNC(=N)N)NC(=O)[C@@H](NC(=O)[C@H](CCCNC(=N)N)NC(=O)[C@H](Cc2c[nH]cn2)NC(=O)[C@@H](N)CCCCN)CSSC[C@@H](C(=O)O)NC(=O)[C@H](Cc2c[nH]c3ccccc23)NC(=O)[C@H](CCCNC(=N)N)NC(=O)[C@H](Cc2ccc(O)cc2)NC1=O [K4-C22] (H-KHRCRVYNNGMPTGMYRWC-OH; disulfide 4-19; N-terminus assumed) | 4 µM | 
KRKKHRSRVYNNGMPTGMYRWC-OH [C7S] | 63 µM | 63 fold
CSCC[C@@H]1NC(=O)CNC(=O)[C@H](C)NC(=O)[C@@H]2CCCN2C(=O)[C@H](CCSC)NC(=O)CNC(=O)[C@H](CC(N)=O)NC(=O)[C@H](CC(N)=O)NC(=O)[C@H](Cc2ccc(O)cc2)NC(=O)[C@H](C(C)C)NC(=O)[C@H](CCCNC(=N)N)NC(=O)[C@@H](NC(=O)[C@H](CCCNC(=N)N)NC(=O)[C@H](Cc2c[nH]cn2)NC(=O)[C@H](CCCCN)NC(=O)[C@H](CCCCN)NC(=O)[C@H](CCCNC(=N)N)NC(=O)[C@@H](N)CCCCN)CSSC[C@@H](C(=O)O)NC(=O)[C@H](Cc2c[nH]c3ccccc23)NC(=O)[C@H](CCCNC(=N)N)NC(=O)[C@H](Cc2ccc(O)cc2)NC1=O [T16A] (H-KRKKHRCRVYNNGMPAGMYRWC-OH; disulfide 7-22) | 16 µM | 
CSCC[C@@H]1NC(=O)CNC(=O)[C@H]([C@@H](C)O)NC(=O)[C@@H]2CCCN2C(=O)[C@H](CCSC)NC(=O)CNC(=O)[C@H](CC(N)=O)NC(=O)[C@@H](CC(N)=O)NC(=O)[C@H](Cc2ccc(O)cc2)NC(=O)[C@H](C(C)C)NC(=O)[C@H](CCCNC(=N)N)NC(=O)[C@@H](NC(=O)[C@H](CCCNC(=N)N)NC(=O)[C@H](Cc2c[nH]cn2)NC(=O)[C@H](CCCCN)NC(=O)[C@H](CCCCN)NC(=O)[C@H](CCCNC(=N)N)NC(=O)[C@@H](N)CCCCN)CSSC[C@@H](C(=O)O)NC(=O)[C@H](Cc2c[nH]c3ccccc23)NC(=O)[C@H](CCCNC(=N)N)NC(=O)[C@H](Cc2ccc(O)cc2)NC1=O [N11Nd] (H-KRKKHRCRVY[dN]NGMPTGMYRWC-OH; disulfide 7-22; N-terminus assumed) | > 1000 µM | 
CSCC[C@@H]1NC(=O)CNC(=O)[C@H]([C@@H](C)O)NC(=O)[C@@H]2CCCN2C(=O)[C@H](CCSC)NC(=O)CNC(=O)[C@H](C)NC(=O)[C@H](CC(N)=O)NC(=O)[C@H](Cc2ccc(O)cc2)NC(=O)[C@H](C(C)C)NC(=O)[C@H](CCCNC(=N)N)NC(=O)[C@@H](NC(=O)[C@H](CCCNC(=N)N)NC(=O)[C@H](Cc2c[nH]cn2)NC(=O)[C@H](CCCCN)NC(=O)[C@H](CCCCN)NC(=O)[C@H](CCCNC(=N)N)NC(=O)[C@@H](N)CCCCN)CSSC[C@@H](C(=O)O)NC(=O)[C@H](Cc2c[nH]c3ccccc23)NC(=O)[C@H](CCCNC(=N)N)NC(=O)[C@H](Cc2ccc(O)cc2)NC1=O [N12A] (H-KRKKHRCRVYNAGMPTGMYRWC-OH; disulfide 7-22) | 4 µM | 
CSCC[C@@H]1NC(=O)CNC(=O)[C@H]([C@@H](C)O)NC(=O)[C@@H]2CCCN2C(=O)[C@H](CCSC)NC(=O)CNC(=O)[C@H](CC(N)=O)NC(=O)[C@H](C)NC(=O)[C@H](Cc2ccc(O)cc2)NC(=O)[C@H](C(C)C)NC(=O)[C@H](CCCNC(=N)N)NC(=O)[C@@H](NC(=O)[C@H](CCCNC(=N)N)NC(=O)[C@H](Cc2c[nH]cn2)NC(=O)[C@H](CCCCN)NC(=O)[C@H](CCCCN)NC(=O)[C@H](CCCNC(=N)N)NC(=O)[C@@H](N)CCCCN)CSSC[C@@H](C(=O)O)NC(=O)[C@H](Cc2c[nH]c3ccccc23)NC(=O)[C@H](CCCNC(=N)N)NC(=O)[C@H](Cc2ccc(O)cc2)NC1=O [N11A] (H-KRKKHRCRVYANGMPTGMYRWC-OH; disulfide 7-22) | 16 µM | 
KRKKHRSRVYNNGMPTGMYRWS [C7S-C22S] | 63 µM | 
CSCC[C@@H]1NC(=O)CNC(=O)[C@H](CC(N)=O)NC(=O)[C@H](CC(N)=O)NC(=O)[C@H](Cc2ccc(O)cc2)NC(=O)[C@H](C(C)C)NC(=O)[C@H](CCCNC(=N)N)NC(=O)[C@@H](NC(=O)[C@H](CCCNC(=N)N)NC(=O)[C@H](Cc2c[nH]cn2)NC(=O)[C@H](CCCCN)NC(=O)[C@H](CCCCN)NC(=O)[C@H](CCCNC(=N)N)NC(=O)[C@@H](N)CCCCN)CSSC[C@@H](C(=O)O)NC(=O)[C@H](Cc2c[nH]c3ccccc23)NC(=O)[C@H](CCCNC(=N)N)NC(=O)[C@H](Cc2ccc(O)cc2)NC(=O)[C@H](C)NC(=O)CNC(=O)[C@H]([C@@H](C)O)NC(=O)[C@@H]2CCCN2C1=O [M18A] (H-KRKKHRCRVYNNGMPTGAYRWC-OH; disulfide 7-22) | 1 µM | 
CSCC[C@@H]1NC(=O)CNC(=O)[C@H]([C@@H](C)O)NC(=O)[C@@H]2CCCN2C(=O)[C@H](CCSC)NC(=O)CNC(=O)[C@H](CC(N)=O)NC(=O)[C@H](CC(N)=O)NC(=O)[C@H](Cc2ccc(O)cc2)NC(=O)[C@H](C(C)C)NC(=O)[C@@H](CCCNC(=N)N)NC(=O)[C@@H](NC(=O)[C@H](CCCNC(=N)N)NC(=O)[C@H](Cc2c[nH]cn2)NC(=O)[C@H](CCCCN)NC(=O)[C@H](CCCCN)NC(=O)[C@H](CCCNC(=N)N)NC(=O)[C@@H](N)CCCCN)CSSC[C@@H](C(=O)O)NC(=O)[C@H](Cc2c[nH]c3ccccc23)NC(=O)[C@H](CCCNC(=N)N)NC(=O)[C@H](Cc2ccc(O)cc2)NC1=O [R8Rd] (H-KRKKHRC[dR]VYNNGMPTGMYRWC-OH; disulfide 7-22; N-terminus assumed) | 63 µM | 63 fold
KRKKHRARVYNNGMPTGMYRWC-OH [C7A] | 16 µM | 16 fold
CSCC[C@@H]1NC(=O)CNC(=O)[C@H]([C@@H](C)O)NC(=O)[C@@H]2CCCN2C(=O)[C@H](CCSC)NC(=O)CNC(=O)[C@H](CC(N)=O)NC(=O)[C@H](CC(N)=O)NC(=O)[C@H](Cc2ccc(O)cc2)NC(=O)[C@@H](C(C)C)NC(=O)[C@H](CCCNC(=N)N)NC(=O)[C@@H](NC(=O)[C@H](CCCNC(=N)N)NC(=O)[C@H](Cc2c[nH]cn2)NC(=O)[C@H](CCCCN)NC(=O)[C@H](CCCCN)NC(=O)[C@H](CCCNC(=N)N)NC(=O)[C@@H](N)CCCCN)CSSC[C@@H](C(=O)O)NC(=O)[C@H](Cc2c[nH]c3ccccc23)NC(=O)[C@H](CCCNC(=N)N)NC(=O)[C@H](Cc2ccc(O)cc2)NC1=O [V9Vd] (H-KRKKHRCR[dV]YNNGMPTGMYRWC-OH; disulfide 7-22; N-terminus assumed) | 63 µM | 63 fold
CSCC[C@@H]1NC(=O)[C@H](C)NC(=O)[C@H]([C@@H](C)O)NC(=O)[C@@H]2CCCN2C(=O)[C@H](CCSC)NC(=O)CNC(=O)[C@H](CC(N)=O)NC(=O)[C@H](CC(N)=O)NC(=O)[C@H](Cc2ccc(O)cc2)NC(=O)[C@H](C(C)C)NC(=O)[C@H](CCCNC(=N)N)NC(=O)[C@@H](NC(=O)[C@H](CCCNC(=N)N)NC(=O)[C@H](Cc2c[nH]cn2)NC(=O)[C@H](CCCCN)NC(=O)[C@H](CCCCN)NC(=O)[C@H](CCCNC(=N)N)NC(=O)[C@@H](N)CCCCN)CSSC[C@@H](C(=O)O)NC(=O)[C@H](Cc2c[nH]c3ccccc23)NC(=O)[C@H](CCCNC(=N)N)NC(=O)[C@H](Cc2ccc(O)cc2)NC1=O [G17A] (H-KRKKHRCRVYNNGMPTAMYRWC-OH; disulfide 7-22) | 4 µM | 
CSCC[C@@H]1NC(=O)CNC(=O)[C@H]([C@@H](C)O)NC(=O)[C@@H]2CCCN2C(=O)[C@H](CCSC)NC(=O)CNC(=O)[C@H](CC(N)=O)NC(=O)[C@H](CC(N)=O)NC(=O)[C@H](Cc2ccc(O)cc2)NC(=O)[C@H](C(C)C)NC(=O)[C@H](CCCNC(=N)N)NC(=O)[C@@H](NC(=O)[C@@H](N)CCCNC(=N)N)CSSC[C@@H](C(=O)O)NC(=O)[C@H](Cc2c[nH]c3ccccc23)NC(=O)[C@H](CCCNC(=N)N)NC(=O)[C@H](Cc2ccc(O)cc2)NC1=O [R6-C22] (H-RCRVYNNGMPTGMYRWC-OH; disulfide 2-17; N-terminus assumed) | 63 µM | 
